The target of one data set is BRDT BD2 L/V (Homo sapiens, UniProt Q58F21, L306V). Nature of the data set: competitive AlphaLISA. The format is binding.
Another data set can be described thus: Plasma Half-life. The following applies: BALB/c, mouse, pH 7.4.
A further data set addresses mu (MOP) (h) (Homo sapiens, UniProt P35372). Nature of the data set: CEREP ExpresSProfile. The following applies: read-out: Mean % of control specific binding (±SD).
In another data set the target is 5-HT1B (Rattus norvegicus, UniProt P28564). Kind of data set: CEREP ExpresSProfile. Conditions: read-out: Mean % of control specific binding (±SD).
A further data set deals with HER4 (Homo sapiens, UniProt Q15303). Nature of the data set: kinase Express Screen. It is filed as biochemical. The procedure:
(§1) Kinase Remaining activity
(§2) Table S9. 9-ME-1 Kinase Screen
(§3) Activity of panel of human kinases following treatment with 1 µM (2R, 3S)-7. Dundee MRC-PPU Express Screen
(§4) (http://www.kinase-screen.mrc.ac.uk/services/express-screen)

The target in another data set is MSK1 (Homo sapiens, UniProt O75582). Kind of data set: kinase Express Screen. The format is biochemical. The procedure: as §1, §2, §3, §4
Another data set addresses EPH-A2 (Homo sapiens, UniProt P29317). Nature of the data set: kinase Express Screen. It is filed as biochemical. The procedure:
as §1, §2, §3, §4

The target in a further data set is MKK1 (Homo sapiens, UniProt Q02750). Nature of the data set: kinase Express Screen. The format is biochemical. As to the method: as §1, §2, §3, §4
For another data set, the target named is AMPK (hum) (Homo sapiens, UniProt Q13131). Nature of the data set: kinase Express Screen. It is filed as biochemical. As to the method:
as §1, §2, §3, §4

The next data set concerns the target DYRK1A (Homo sapiens, UniProt Q13627). Nature of the data set: kinase Express Screen. It is filed as biochemical. The procedure:
as §1, §2, §3, §4

The target in another data set is PLK1 (Homo sapiens, UniProt P53350). Nature of the data set: kinase Express Screen. It is filed as biochemical. The procedure:
as §1, §2, §3, §4

The next data set has as its target IGF-1R (Homo sapiens, UniProt P08069). Kind of data set: kinase Express Screen. It is filed as biochemical. The procedure: as §1, §2, §3, §4
Another data set has as its target PRK2 (Homo sapiens, UniProt Q16513). Kind of data set: kinase Express Screen. It is filed as biochemical. The procedure: as §1, §2, §3, §4
A further data set deals with TBK1 (Homo sapiens, UniProt Q9UHD2). Kind of data set: kinase Express Screen. It is filed as biochemical. As to the method:
as §1, §2, §3, §4

A further data set has as its target CAMKKb (Homo sapiens, UniProt Q96RR4). Kind of data set: kinase Express Screen. The format is biochemical. As to the method:
as §1, §2, §3, §4

For a further data set, the target named is GSK3b (Homo sapiens, UniProt P49841). Kind of data set: kinase Express Screen. The format is biochemical. As to the method: as §1, §2, §3, §4
The target of the next data set is p38a MAPK (Homo sapiens, UniProt Q16539). Kind of data set: kinase Express Screen. It is filed as biochemical. The procedure: as §1, §2, §3, §4
In a further data set the target is Aurora B (Homo sapiens, UniProt Q96GD4). Nature of the data set: kinase Express Screen. It is filed as biochemical. The procedure: as §1, §2, §3, §4
In a further data set the target is CHK2 (Homo sapiens, UniProt O96017). Nature of the data set: kinase Express Screen. It is filed as biochemical. As to the method:
as §1, §2, §3, §4

Another data set deals with SRPK1 (Homo sapiens, UniProt Q96SB4). Nature of the data set: kinase Express Screen. The format is biochemical. The procedure: as §1, §2, §3, §4
For another data set, the target named is TTK (Homo sapiens, UniProt P33981). Kind of data set: kinase Express Screen. It is filed as biochemical. As to the method:
as §1, §2, §3, §4

A further data set has as its target IRAK4 (Homo sapiens, UniProt Q9NWZ3). Kind of data set: kinase Express Screen. It is filed as biochemical. As to the method: as §1, §2, §3, §4
The target of a further data set is TAK1 (Homo sapiens, UniProt O43318). Nature of the data set: kinase Express Screen. It is filed as biochemical. The procedure:
as §1, §2, §3, §4

The target of the next data set is TrkA (Homo sapiens, UniProt P04629). Kind of data set: kinase Express Screen. The format is biochemical. As to the method: as §1, §2, §3, §4
The next data set has as its target RSK1 (Homo sapiens, UniProt Q15418). Kind of data set: kinase Express Screen. The format is biochemical. As to the method:
as §1, §2, §3, §4

For another data set, the target named is MARK3 (Homo sapiens, UniProt P27448). Kind of data set: kinase Express Screen. It is filed as biochemical. The procedure:
as §1, §2, §3, §4

The target in another data set is PKD1 (Homo sapiens, UniProt Q15139). Kind of data set: kinase Express Screen. It is filed as biochemical. The procedure:
as §1, §2, §3, §4

Another data set has as its target Lck (Homo sapiens, UniProt P06239). Nature of the data set: kinase Express Screen. The format is biochemical. The procedure:
as §1, §2, §3, §4

For a further data set, the target named is EF2K (Homo sapiens, UniProt O00418). Nature of the data set: kinase Express Screen. The format is biochemical. The procedure:
as §1, §2, §3, §4

Another data set deals with VEG-FR (Homo sapiens, UniProt P17948). Kind of data set: kinase Express Screen. The format is biochemical. The procedure: as §1, §2, §3, §4
The next data set has as its target HIPK2 (Homo sapiens, UniProt Q9H2X6). Kind of data set: kinase Express Screen. It is filed as biochemical. The procedure:
as §1, §2, §3, §4

For a further data set, the target named is ROCK 2 (Homo sapiens, UniProt O75116). Kind of data set: kinase Express Screen. It is filed as biochemical. As to the method: as §1, §2, §3, §4
A further data set concerns the target PKCa (Homo sapiens, UniProt P17252). Nature of the data set: kinase Express Screen. The format is biochemical. As to the method: as §1, §2, §3, §4
The next data set addresses BTK (Homo sapiens, UniProt Q06187). Nature of the data set: kinase Express Screen. The format is biochemical. As to the method: as §1, §2, §3, §4
The target of the next data set is NEK6 (Homo sapiens, UniProt Q9HC98). Kind of data set: kinase Express Screen. The format is biochemical. As to the method: as §1, §2, §3, §4
In the next data set the target is CK1δ (Homo sapiens, UniProt P48730). Nature of the data set: kinase Express Screen. The format is biochemical. As to the method: as §1, §2, §3, §4
The target in another data set is LKB1 (Homo sapiens, UniProt Q15831). Nature of the data set: kinase Express Screen. The format is biochemical. The procedure: as §1, §2, §3, §4
The next data set deals with PKA (Homo sapiens, UniProt P17612). Kind of data set: kinase Express Screen. The format is biochemical. The procedure:
as §1, §2, §3, §4

A further data set has as its target PAK4 (Homo sapiens, UniProt O96013). Kind of data set: kinase Express Screen. The format is biochemical. As to the method: as §1, §2, §3, §4
Another data set addresses S6K1 (Homo sapiens, UniProt P23443). Kind of data set: kinase Express Screen. It is filed as biochemical. As to the method:
as §1, §2, §3, §4

A further data set addresses MST2 (Homo sapiens, UniProt Q13188). Kind of data set: kinase Express Screen. It is filed as biochemical. The procedure:
as §1, §2, §3, §4

The next data set concerns the target 5-HT transporter (h) (Homo sapiens, UniProt P31645). Nature of the data set: CEREP ExpresSProfile. Conditions: read-out: Mean % of control specific binding (±SD).
For another data set, the target named is 5-HT5a (h) (Homo sapiens, UniProt P47898). Kind of data set: CEREP ExpresSProfile. Conditions: read-out: Mean % of control specific binding (±SD).
Another data set addresses A3 (h) (Homo sapiens, UniProt P0DMS8). Nature of the data set: CEREP ExpresSProfile. The following applies: read-out: Mean % of control specific binding (±SD).

Here are results for 2 compounds from PMC5909127, “Optimization of a “bump-and-hole” approach to allele-selective BET bromodomain inhibition” (Chemical Science, 2018).

BTK, sequence (Q06187 whole entry): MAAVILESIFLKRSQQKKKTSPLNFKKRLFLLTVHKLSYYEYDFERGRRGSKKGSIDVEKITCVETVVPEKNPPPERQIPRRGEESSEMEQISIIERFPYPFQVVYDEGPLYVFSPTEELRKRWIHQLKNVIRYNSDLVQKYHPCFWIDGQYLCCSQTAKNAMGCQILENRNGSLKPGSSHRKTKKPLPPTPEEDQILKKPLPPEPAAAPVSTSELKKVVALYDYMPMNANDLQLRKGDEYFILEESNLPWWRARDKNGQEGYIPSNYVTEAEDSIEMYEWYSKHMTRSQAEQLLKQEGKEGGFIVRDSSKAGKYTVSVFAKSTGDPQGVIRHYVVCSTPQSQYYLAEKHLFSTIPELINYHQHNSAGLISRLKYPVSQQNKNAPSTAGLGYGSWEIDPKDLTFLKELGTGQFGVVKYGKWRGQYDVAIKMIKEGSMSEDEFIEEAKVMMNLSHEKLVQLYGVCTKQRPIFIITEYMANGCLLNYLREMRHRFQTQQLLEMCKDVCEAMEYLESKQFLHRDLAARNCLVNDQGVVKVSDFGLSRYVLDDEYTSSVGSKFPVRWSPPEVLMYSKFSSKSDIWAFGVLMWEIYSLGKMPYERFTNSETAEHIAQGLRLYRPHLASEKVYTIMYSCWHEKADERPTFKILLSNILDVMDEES
MKK1, sequence (Q02750 whole entry): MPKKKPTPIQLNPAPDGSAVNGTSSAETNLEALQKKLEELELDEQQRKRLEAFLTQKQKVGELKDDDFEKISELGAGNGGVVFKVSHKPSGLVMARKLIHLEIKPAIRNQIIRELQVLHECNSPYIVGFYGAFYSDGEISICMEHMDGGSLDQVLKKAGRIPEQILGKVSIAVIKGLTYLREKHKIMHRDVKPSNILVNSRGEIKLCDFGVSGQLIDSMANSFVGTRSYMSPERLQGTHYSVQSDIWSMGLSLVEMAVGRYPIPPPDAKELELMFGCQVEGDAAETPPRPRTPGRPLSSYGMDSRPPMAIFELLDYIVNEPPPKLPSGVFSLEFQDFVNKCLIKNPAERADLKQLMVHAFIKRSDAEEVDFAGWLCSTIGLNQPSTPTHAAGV
S6K1, sequence (P23443 whole entry): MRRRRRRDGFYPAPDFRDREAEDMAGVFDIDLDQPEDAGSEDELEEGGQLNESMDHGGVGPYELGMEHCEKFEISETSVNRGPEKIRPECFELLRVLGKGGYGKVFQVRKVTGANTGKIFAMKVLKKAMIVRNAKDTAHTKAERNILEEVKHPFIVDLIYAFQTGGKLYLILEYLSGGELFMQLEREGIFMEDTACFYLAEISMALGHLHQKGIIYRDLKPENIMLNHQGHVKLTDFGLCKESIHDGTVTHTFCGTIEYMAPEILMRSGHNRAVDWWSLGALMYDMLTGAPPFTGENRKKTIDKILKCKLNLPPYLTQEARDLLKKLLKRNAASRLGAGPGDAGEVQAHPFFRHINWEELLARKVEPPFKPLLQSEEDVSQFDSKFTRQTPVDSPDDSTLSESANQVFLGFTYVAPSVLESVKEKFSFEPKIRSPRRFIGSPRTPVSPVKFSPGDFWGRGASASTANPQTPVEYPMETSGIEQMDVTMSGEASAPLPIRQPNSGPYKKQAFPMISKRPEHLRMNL
p38a MAPK, sequence (Q16539 whole entry): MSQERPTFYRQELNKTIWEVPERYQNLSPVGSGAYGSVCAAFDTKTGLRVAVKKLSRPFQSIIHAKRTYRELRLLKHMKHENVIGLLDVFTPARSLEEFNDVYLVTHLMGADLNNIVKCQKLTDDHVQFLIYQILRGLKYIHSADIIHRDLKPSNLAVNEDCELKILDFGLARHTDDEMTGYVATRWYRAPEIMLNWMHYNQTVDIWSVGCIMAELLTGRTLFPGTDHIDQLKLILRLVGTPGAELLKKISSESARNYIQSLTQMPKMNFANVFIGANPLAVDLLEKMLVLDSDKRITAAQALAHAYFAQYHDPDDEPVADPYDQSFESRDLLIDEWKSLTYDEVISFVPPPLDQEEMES
HER4, sequence (Q15303 26-1308): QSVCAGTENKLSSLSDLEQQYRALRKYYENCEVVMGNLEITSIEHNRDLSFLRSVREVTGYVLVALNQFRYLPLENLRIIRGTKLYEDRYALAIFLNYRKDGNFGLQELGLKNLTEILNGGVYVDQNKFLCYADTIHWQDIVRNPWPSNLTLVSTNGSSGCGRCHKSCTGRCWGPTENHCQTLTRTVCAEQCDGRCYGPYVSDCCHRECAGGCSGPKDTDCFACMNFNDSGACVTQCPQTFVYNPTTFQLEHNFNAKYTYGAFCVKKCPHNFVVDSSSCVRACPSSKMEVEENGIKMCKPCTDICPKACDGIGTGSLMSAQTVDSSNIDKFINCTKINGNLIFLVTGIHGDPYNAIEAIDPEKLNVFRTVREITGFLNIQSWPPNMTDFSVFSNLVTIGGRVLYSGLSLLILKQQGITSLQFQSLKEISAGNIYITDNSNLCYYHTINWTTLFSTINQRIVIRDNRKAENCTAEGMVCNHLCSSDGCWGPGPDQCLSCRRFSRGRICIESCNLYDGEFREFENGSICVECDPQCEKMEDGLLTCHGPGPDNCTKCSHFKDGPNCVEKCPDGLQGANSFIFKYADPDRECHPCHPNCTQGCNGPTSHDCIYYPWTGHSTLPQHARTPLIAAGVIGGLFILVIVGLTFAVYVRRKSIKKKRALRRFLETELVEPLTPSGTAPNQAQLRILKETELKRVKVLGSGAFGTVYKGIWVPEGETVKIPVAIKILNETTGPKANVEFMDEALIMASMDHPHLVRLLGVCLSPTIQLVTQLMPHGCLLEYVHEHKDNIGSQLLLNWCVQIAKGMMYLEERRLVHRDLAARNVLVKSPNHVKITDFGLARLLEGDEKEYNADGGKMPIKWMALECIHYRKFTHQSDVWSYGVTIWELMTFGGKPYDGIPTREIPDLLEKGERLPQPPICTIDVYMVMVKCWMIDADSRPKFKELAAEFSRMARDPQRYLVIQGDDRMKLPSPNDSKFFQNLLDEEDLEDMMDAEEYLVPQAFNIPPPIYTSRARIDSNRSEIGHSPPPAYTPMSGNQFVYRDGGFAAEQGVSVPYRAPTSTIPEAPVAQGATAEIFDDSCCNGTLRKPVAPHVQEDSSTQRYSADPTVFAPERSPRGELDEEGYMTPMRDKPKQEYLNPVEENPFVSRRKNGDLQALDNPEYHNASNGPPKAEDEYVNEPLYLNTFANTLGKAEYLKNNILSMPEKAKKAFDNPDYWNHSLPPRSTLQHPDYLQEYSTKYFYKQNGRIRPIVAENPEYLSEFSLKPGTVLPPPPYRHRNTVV
MSK1, sequence (O75582 whole entry): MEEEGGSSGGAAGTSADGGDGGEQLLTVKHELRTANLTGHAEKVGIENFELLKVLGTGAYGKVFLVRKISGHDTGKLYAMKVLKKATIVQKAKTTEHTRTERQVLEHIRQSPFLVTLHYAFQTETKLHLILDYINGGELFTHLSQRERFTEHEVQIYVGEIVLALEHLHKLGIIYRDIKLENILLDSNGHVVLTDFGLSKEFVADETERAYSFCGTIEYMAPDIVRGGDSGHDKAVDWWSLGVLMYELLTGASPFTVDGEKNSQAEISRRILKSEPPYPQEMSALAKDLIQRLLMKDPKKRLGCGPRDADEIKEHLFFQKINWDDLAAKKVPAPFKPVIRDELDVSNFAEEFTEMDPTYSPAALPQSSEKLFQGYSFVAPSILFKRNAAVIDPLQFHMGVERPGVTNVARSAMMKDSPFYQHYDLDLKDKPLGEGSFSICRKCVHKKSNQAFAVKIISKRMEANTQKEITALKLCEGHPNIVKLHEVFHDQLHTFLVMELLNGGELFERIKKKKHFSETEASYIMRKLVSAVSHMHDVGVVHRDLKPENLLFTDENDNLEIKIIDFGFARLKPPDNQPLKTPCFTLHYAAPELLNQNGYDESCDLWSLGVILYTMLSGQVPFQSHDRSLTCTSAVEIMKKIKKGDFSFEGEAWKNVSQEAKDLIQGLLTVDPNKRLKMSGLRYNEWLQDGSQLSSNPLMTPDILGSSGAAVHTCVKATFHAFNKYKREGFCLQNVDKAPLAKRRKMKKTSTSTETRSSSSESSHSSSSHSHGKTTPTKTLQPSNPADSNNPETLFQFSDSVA
5-HT5a (h), sequence (P47898 whole entry): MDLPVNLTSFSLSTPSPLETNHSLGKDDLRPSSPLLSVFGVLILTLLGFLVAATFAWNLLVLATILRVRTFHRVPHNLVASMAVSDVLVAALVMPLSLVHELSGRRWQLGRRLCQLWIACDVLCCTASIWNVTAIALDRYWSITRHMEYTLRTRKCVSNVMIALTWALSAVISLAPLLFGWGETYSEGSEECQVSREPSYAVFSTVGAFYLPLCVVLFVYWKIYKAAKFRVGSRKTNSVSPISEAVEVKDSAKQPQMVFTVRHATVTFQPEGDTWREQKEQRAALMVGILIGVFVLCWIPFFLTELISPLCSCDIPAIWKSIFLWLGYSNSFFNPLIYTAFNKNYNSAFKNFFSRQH
Excerpt for A3 (h): Receptor Reference Compound Mean % of control specific
Receptor & Ion-Channel Screening
CEREP ExpresSProfile panel

Turning to `CC[C@@H](C(=O)OC)[C@@H]1N=C(c2ccc(Cl)cc2)c2ccc(OC)cc2-n2c(C)nnc21` (racemic) [Compound 8], the IC50 (commonly the concentration that gives 50% inhibition) on BRDT BD2 L/V is 398 nM. In the data set “Plasma Half-life”, the half-life (in general, the time needed for the level to fall by half in the phase considered) at 50 µM was greater than 3 h.
On to `COC(=O)[C@H](C)[C@@H]1N=C(c2ccc(Cl)cc2)c2ccc(OC)cc2-n2c(C)nnc21` [(2R,3S)-7], for which the remaining activity at 1 µM stood at 119% on mu (MOP) (h); 98% on 5-HT1B; 114% on HER4; 94% on MSK1; 86% at EPH-A2; 89% on MKK1. Further, the remaining activity at 1 µM on AMPK (hum) came to 104%; on DYRK1A, 80%; at PLK1 it was 89%; at IGF-1R, 93%; on PRK2, 100%; at TBK1, 98%. The remaining activity at 1 µM at CAMKKb came to 101%; on GSK3b, 95%; on p38a MAPK it was 101%; at Aurora B it was 94%; on CHK2, 107%; on SRPK1, 79%. Moreover, the remaining activity at 1 µM at TTK is 102%; at IRAK4, 114%; at TAK1, 108%; at TrkA it was 98%; on RSK1, 99%; on MARK3, 94%. The remaining activity at 1 µM on PKD1 came out at 78%; at Lck, 86%; at EF2K, 97%; on VEG-FR, 89%; at HIPK2 it was 99%; on ROCK 2, 88%. Besides, the remaining activity at 1 µM came out at 96% at PKCa; 96% on BTK; 109% at NEK6; 93% on CK1δ; 91% on LKB1; 92% at PKA. Moreover, the remaining activity at 1 µM stood at 104% on PAK4; 93% at S6K1; 118% on MST2; 96% at 5-HT transporter (h); 109% at 5-HT5a (h); 91% at A3 (h).
